IC50 data for 34 compounds are collected here from patent publication US9102688B2, “Sulfonaminoquinoline hepcidin antagonists” (Vifor (International) AG, priority 2011, dated 2015).

SMILES strings stand for the structures.

In this assay the target is T1, human ferroportin (Homo sapiens, UniProt Q9NP59).
T1 construct: expressed in transfected cells
T1 sequence (Q9NP59 1-571): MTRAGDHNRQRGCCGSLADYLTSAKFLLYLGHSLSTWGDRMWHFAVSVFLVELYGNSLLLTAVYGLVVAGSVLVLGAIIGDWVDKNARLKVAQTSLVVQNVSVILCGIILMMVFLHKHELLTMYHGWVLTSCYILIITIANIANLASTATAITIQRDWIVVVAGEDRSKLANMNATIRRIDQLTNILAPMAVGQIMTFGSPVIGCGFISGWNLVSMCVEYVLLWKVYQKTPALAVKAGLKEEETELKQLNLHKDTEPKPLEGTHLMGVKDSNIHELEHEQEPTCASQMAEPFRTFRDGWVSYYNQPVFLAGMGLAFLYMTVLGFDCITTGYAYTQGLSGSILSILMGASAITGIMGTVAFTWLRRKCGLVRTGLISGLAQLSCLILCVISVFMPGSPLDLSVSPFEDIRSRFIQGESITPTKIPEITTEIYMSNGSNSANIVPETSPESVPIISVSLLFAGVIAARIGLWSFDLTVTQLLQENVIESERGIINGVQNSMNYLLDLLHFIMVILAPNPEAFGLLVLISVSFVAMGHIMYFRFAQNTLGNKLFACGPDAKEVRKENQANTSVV
The assay is described as follows: ferroportin internalization assay (inhibition of hepcidin-induced internalization of Fpn). The format is cell-based. The note with it: MDCK-FPN-HaloTag cells, 100 nM hepcidin, overnight incubation; concentration range from 0.04 to 40 μM. On the procedure:
The hepcidin-antagonistic action of the sulfonaminoquinoline compounds of the present invention was determined by means of the “ferroportin internalization assay” described in the following.
Organic compounds of low molecular weight which counteract the biological actions of hepcidin on its receptor, the iron exporter ferroportin (Fpn), were identified on the basis of their ability to inhibit hepcidin-induced internalization of Fpn in living cells. For this purpose, a stable cell line (Madin-Darby canine kidney, MDCK) was produced which constitutively expresses human ferroportin fused recombinantly at its C terminus with a fluorescent reporter protein (HaloTag®, Promega Corp.). The internalization of Fpn was monitored by labelling these cells with fluorescent ligands (HaloTag®-TMR, tetramethylrhodamine) which join covalently on to the HaloTag reporter gene fused with the Fpn. […] Optimized image analysis algorithms were used to ascertain the cell surface and to quantify the corresponding membrane fluorescence associated with the Fpn-HaloTag fusion protein. This assay allows a quantitative image-based analysis in order to quickly evaluate compounds which can block hepcidin-induced internalization of Fpn. This assay is a direct in vitro pendant of the in vivo action mechanism proposed for medicament candidates and is therefore suitable as an initial assay with a high throughput for identifying compounds which counteract the action of hepcidin on its receptor ferroportin.
• 7,500 cells per well (MDCK-FPN-HaloTag) were transinoculated in 50 μl of DMEM medium (Dulbeccos Modified Eagle Medium with 10% foetal bovine serum (FBS), which contained 1% penicillin, 1% streptomycin and 450 μg/ml of G-418) in microtitre plates with 384 wells (384 Cell carrier plates, Perkin Elmer, cat. no. 6007430), followed by incubation overnight at 37° C./5% CO2. • The volume of the medium was reduced to 10 μl, and 10 μl of 5 μM HaloTag-TMR ligands (Promega, cat. no. G 8251) were added in DMEM medium in order to stain the Fpn-HaloTag fusion protein. • 15 min incubation at 37° C./5% CO2 • The HaloTag-TMR ligand was removed and the cells were washed with fresh DMEM medium and the volume was reduced to 20 μl of DMEM medium. • 3 μl per well of a solution of the test compound (dissolved DMSO) were added ([…]). • 7 μl of […] hepcidin (Peptides International, cat. no. PLP-4392-s, 100 μM stock solution diluted in water in DMEM medium) were added per well up to a final hepcidin concentration of 100 nM. • The cells were incubated overnight at 37° C./5% CO2. • The cells were fixed by adding paraformaldehyde (PFA, Electron Microscopy Sciences, cat. no. 15710-S) directly to the cells up to a final concentration of 4%, followed by incubation at room temperature for 15-20 minutes. • The PFA solution was removed and the cells were washed with PBS (phosphate-buffered saline solution), in each case 30 μl remaining in the plate. • 20 μl of Draq5 (Biostatus, cat. no. DR 51000) were added up to a final concentration of 2.5 μM in order to stain the cell nuclei, and the plates were sealed with a foil plate seal. • The plates were analysed with the Opera Plate Imager (Opera Confocal Plate Imager, Perkin Elmer) with 7 images per well; 440 ms exposure time per image, […] focal point height.
As a reminder, the IC50 is the concentration that gives 50% inhibition. On to `COc1ccnc2c3c(ccc12)-c1cc(C(F)(F)F)ccc1S(=O)(=O)N3` [Example 109, 1-Methoxy-9-trifluoromethyl-5H-6-thia-4,5-diaza-chrysene 6,6-dioxide], for which the IC50 amounted to 979 nM. With `O=S1(=O)Nc2c(ccc3cccnc23)CN1c1ccccc1` [Example 113, 2-Phenyl-1,4-dihydro-2H-3-thia-2,4,5-triaza-phenanthrene 3,3-dioxide] the figure was 460 nM; with `O=S1(=O)NCc2ccc3cccnc3c2N1` [Example 114, 1,4-Dihydro-2H-3-thia-2,4,5-triaza-phenanthrene 3,3-dioxide], 39500 nM; with `CN1C(c2ccccc2)c2ccc3cccnc3c2NS1(=O)=O` (stereo not shown) [Example 115, 2-Methyl-1-phenyl-1,4-dihydro-2H-3-thia-2,4,5-triaza-phenanthrene 3,3-dioxide], 870 nM. As for `N#Cc1ccc(S(=O)(=O)Nc2cccc3cccnc23)cn1` [Example 116, 6-Cyano-pyridine-3-sulfonic acid quinolin-8-ylamide], the figure is 4260 nM; as for `Cc1ccc(S(=O)(=O)Nc2cccc3cccnc23)nc1` [Example 227, 5-Methyl-pyridine-2-sulfonic acid quinolin-8-ylamide], 380 nM. With `Cc1cccc(S(=O)(=O)Nc2cccc3cccnc23)n1` [Example 228, 6-Methyl-pyridine-2-sulfonic acid quinolin-8-ylamide] the figure was 15400 nM; with `O=S(=O)(Nc1cccc2cccnc12)c1cncc(C(F)(F)F)c1` [Example 229, 5-Trifluoromethyl-pyridine-3-sulfonic acid quinolin-8-ylamide], 3980 nM; with `O=S(=O)(Nc1cccc2cccnc12)c1cnccn1` [Example 230, Pyrazine-2-sulfonic acid quinolin-8-ylamide], 1910 nM. Compound `O=S(=O)(Nc1cccc2cccnc12)c1nccs1` [Example 231, Thiazole-2-sulfonic acid quinolin-8-ylamide] displayed an IC50 of 4580 nM.

In the case of `O=S(=O)(Nc1cc(OC(F)(F)F)cc2cccnc12)c1ccc(C(F)(F)F)nc1` [Example 232, 6-Trifluoromethyl-pyridine-3-sulfonic acid (6-trifluoromethoxy-quinolin-8-yl)-amide], the midpoint of inhibition, the IC50, lay at 12500 nM. As for `O=S(=O)(Nc1ccc(C(F)(F)F)c2cccnc12)c1ccccn1` [Example 234, Pyridine-2-sulfonic acid (5-trifluoromethyl-quinolin-8-yl)-amide], the figure is 460 nM; as for `O=S(=O)(Nc1cc(OC(F)(F)F)cc2cccnc12)c1ccccn1` [Example 235, Pyridine-2-sulfonic acid (6-trifluoromethoxy-quinolin-8-yl)-amide], 1090 nM.

For the compound `O=S(=O)(Nc1cc(F)cc2cccnc12)c1ccccn1` [Example 236, Pyridine-2-sulfonic acid (6-fluoro-quinolin-8-yl)-amide], the IC50 was found to be 2370 nM. With `O=S(=O)(Nc1cc(OC(F)(F)F)cc2cccnc12)c1cccnc1` [Example 237, Pyridine-3-sulfonic acid (6-trifluoromethoxy-quinolin-8-yl)-amide] the figure was 3840 nM. With `N#Cc1ccc(S(=O)(=O)Nc2cc(OC(F)(F)F)cc3cccnc23)cn1` [Example 238, 6-Cyano-pyridine-3-sulfonic acid (6-trifluoromethoxy-quinolin-8-yl)-amide] the figure was 2110 nM; with `N#Cc1ccc(S(=O)(=O)Nc2cc(F)cc3cccnc23)cn1` [Example 239, 6-Cyano-pyridine-3-sulfonic acid (6-fluoro-quinolin-8-yl)-amide], 3750 nM. With `N#Cc1ccc(S(=O)(=O)Nc2ccc(C(F)(F)F)c3cccnc23)cn1` [Example 240, 6-Cyano-pyridine-3-sulfonic acid (5-trifluoromethyl-quinolin-8-yl)-amide] the figure was 2600 nM; with `O=S1(=O)Nc2c(ccc3c(Cl)ccnc23)-c2ccccc21` [Example 305, 1-Chloro-5H-6-thia-4,5-diaza-chrysene 6,6-dioxide], 12500 nM. Take `O=S1(=O)Nc2c(cc(F)c3cccnc23)-c2cc(C(F)(F)F)ccc21` [Example 306, 12-Fluoro-9-trifluoromethyl-5H-6-thia-4,5-diaza-chrysene 6,6-dioxide]: inhibition was half-maximal at 4190 nM (IC50). As for `COC(=O)c1ccc2c(c1)-c1ccc3cccnc3c1NS2(=O)=O` [Example 307, 6,6-Dioxo-5,6-dihydro-6λ*6*-thia-4,5-diaza-chrysene-9-carboxylic acid methyl ester], the figure is 4180 nM; as for `N#Cc1ccc2c(c1)-c1ccc3cccnc3c1NS2(=O)=O` [Example 308, 6,6-Dioxo-5,6-dihydro-6λ*6*-thia-4,5-diaza-chrysene-9-carbonitrile], 2830 nM. As for `O=S1(=O)Nc2c(cc(C(F)(F)F)c3cccnc23)-c2ccccc21` [Example 311, 12-Trifluoromethyl-5H-6-thia-4,5-diaza-chrysene 6,6-dioxide], the IC50 was 14100 nM. With `O=S1(=O)Nc2c(cc(C(F)(F)F)c3cccnc23)-c2cc(Cl)ccc21` [Example 312, 9-Chloro-12-trifluoromethyl-5H-6-thia-4,5-diaza-chrysene 6,6-dioxide] the figure was 8510 nM. With `O=S1(=O)Nc2c(ccc3cccnc23)-c2cccnc21` [Example 318, 11H-12-Thia-1,10,11-triaza-chrysene 12,12-dioxide] the figure was 6150 nM; with `COC(=O)c1ccnc2c3c(ccc12)-c1ccccc1S(=O)(=O)N3` [Example 319, 6,6-Dioxo-5,6-dihydro-6λ*6*-thia-4,5-diaza-chrysene-1-carboxylic acid methyl ester], 2940 nM. As for `O=S1(=O)Nc2c(c(F)cc3cccnc23)-c2ccccc21` [Example 323, 11-Fluoro-5H-6-thia-4,5-diaza-chrysene 6,6-dioxide], the figure is 3570 nM; as for `O=S1(=O)Nc2c(cc(F)c3cccnc23)-c2ccccc21` [Example 324, 12-Fluoro-5H-6-thia-4,5-diaza-chrysene 6,6-dioxide], 1390 nM. `O=S1(=O)Nc2c(ccc3cccnc23)-c2cc(Cl)ccc21` [Example 325, 9-Chloro-5H-6-thia-4,5-diaza-chrysene 6,6-dioxide] yielded an IC50 of 770 nM. Consider `COc1ccc2c(c1)S(=O)(=O)Nc1c-2ccc2cccnc12` [Example 326, 8-Methoxy-5H-6-thia-4,5-diaza-chrysene 6,6-dioxide], for which 2110 nM corresponded to half-maximal inhibition (IC50). With `Cc1ccc2c(c1)-c1ccc3cccnc3c1NS2(=O)=O` [Example 327, 9-Methyl-5H-6-thia-4,5-diaza-chrysene 6,6-dioxide] the figure was 3200 nM; with `O=S1(=O)Nc2c(cc(Cl)c3cccnc23)-c2ccccc21` [Example 328, 12-Chloro-5H-6-thia-4,5-diaza-chrysene 6,6-dioxide], 320 nM; with `Cc1ccc2c(c1)S(=O)(=O)Nc1c-2ccc2cccnc12` [Example 329, 8-Methyl-5H-6-thia-4,5-diaza-chrysene 6,6-dioxide], 360 nM.

`O=S1(=O)Nc2c(ccc3cccnc23)-c2ccc(F)cc21` [Example 330, 8-Fluoro-5H-6-thia-4,5-diaza-chrysene 6,6-dioxide] showed an IC50 of 1620 nM.
